From paper PMC10252837, “A Novel Time-Resolved Fluorescence Resonance Energy Transfer Assay for the Discovery of Small-Molecule Inhibitors of HIV-1 Tat-Regulated Transcription” (International Journal of Molecular Sciences, 2023)
Read-outs that look alike come from different tables or passages of the source.

Legend:
[1] = system: Tat activity (Tat-induced viral transcription); experiment: microbe, parasite or virus in culture; assay type: cell-based, HIV-1; conditions: for IC50: read-out: IC50 of Tat Activity
Description: (§1) (A) (Upper panel) Doxycycline (Dox)-inducible Tat-expressing bl-DTR cells cultured in 96-well plates treated with two-fold serial dilutions of each compound in the presence of Dox (50 ng/mL). At 24 h after treatment, the activity of firefly luciferase (F-Luc), indicating Tat activity, was determined as described in the Materials and Methods section. (Bottom panel) TZM-bl cells were treated with two-fold serial dilutions of the indicated compound and then infected with the HIV-1NL4-3 strain at a multiplicity of infection (MOI) of 1. At 24 h after infection, the viral infectivity and cell viability were determined as described in the Materials and Methods section. […] (B) 2 × 10^5 TZM-bl cells growing in 6-well plates were infected with HIV-1 (MOI = 1), transfected with a Tat-expressing plasmid (2 μg) or treated with PMA ([…]) upon indicated compounds at indicated concentrations, respectively. At 24 h after treatment, LTR promoter activity was determined via a Bright-Glo Luciferase Assay Kit. The relative activities are represented as the mean ± SD (n = 3) compared with the DMSO vesicle. (C) The biotinylated TAR RNA (2 nM) was incubated with ARM peptide (100 nM) in the presence of increasing amounts of the hit compound and separated on a 3–12% native polyacrylamide gel. The mobility of biotinylated TAR RNA was detected by chemiluminescence.
The inhibitory effect of hit compounds on Tat-mediated transcription was determined using doxycycline (Dox)-inducible Tat-expressing TZM-bl cells that express the LTR-driven firefly luciferase (F-Luc) gene under the control of Tat upon Dox treatment, as described previously but with minor modifications. In brief, 1 × 10^4 of the cells were cultured in 96-well plates, treated with compounds at a concentration of 10 µM (in the second round of screening), and then treated with Dox (final concentration: 50 ng/mL). After 24 h, the inhibitory effect of the hit compounds on Tat activity was determined by measuring F-Luc activity using a Bright-Glo Luciferase Assay Kit (Promega, Madison, WI, USA). For the dose–response assay, cells cultured in 100 μL medium were treated with 50 μL of 1:2 serially diluted compounds at concentrations ranging from 0 to 12.5 µM and then treated with 50 μL of Dox (final concentration: 50 ng/mL). At 24 h post-treatment, the F-Luc activity was determined as described above. All luminescence assays were carried out in a SpectraMax Paradigm Microplate Reader (Molecular Devices, San Jose, CA, USA), and the data were expressed as a relative percentage (%) compared to the DMSO control (vehicle) in the presence of Dox. The experiments were performed in triplicate.

HIV-1NL4-3 = experiment: HIV-1 infectivity in TZM-bl cells (LTR-driven F-Luc); assay type: cell-based; conditions: for IC50: read-out: IC50 of Infectivity
Description: as §1
(§2) To determine the inhibitory effect of hit compounds on HIV-1 infection, we used TZM-bl cells (also referred to as JC53BL-13), which express HIV-1 receptors and contain the LTR-driven F-Luc gene controlled by HIV-1 infection, as described previously but with some minor modifications. Briefly, 1 × 10^4 TZM-bl cells cultured on 96-well plates were treated in triplicate wells with 1:2 serially diluted compounds at concentrations ranging from 0 to 12.5 µM. Subsequently, the cells were infected with HIV-1NL4-3 virus obtained from the transfection of 293T cells at a multiplicity of infection (MOI) of 1. At 24 h after infection, the inhibitory effect of the hit compounds on infectivity was determined using the Bright-Glo Luciferase Assay Kit (Promega). The dose–response data are expressed as a relative percentage compared to the DMSO control (vehicle). The inhibitory effects of the hit compounds on HIV-1 replication were determined as previously described. Briefly, 4 × 10^5 PBMCs pre-activated with phytohemagglutinin M (PHA-M) were washed with fresh media and then infected with HIV-1NL4-3 or HIV-1AD8 at an MOI of 0.1 by spinoculation for 2 h. After infection, the cells were treated with hit compounds at the indicated concentrations at 3–5 days after treatment, and the inhibitory effect of hit compounds on viral replication was determined by the titration of virions from the cell supernatant using a p24 […]™ Assay Kit (PerkinElmer) according to the manufacturer’s instructions. Cell viability was determined using resazurin-based PrestoBlue™ cell viability reagent (Thermo Fisher Scientific, Waltham, MA, USA) according to the manufacturer’s instructions. The data are presented as relative percentages compared to the DMSO control (vehicle). The experiments were performed in triplicate.

TAR RNA = experiment: RNA gel mobility shift assay (biotinylated TAR RNA and ARM peptide); assay type: binding, HIV-1; conditions: 2 nM biotinylated TAR RNA, 100 nM ARM peptide
Description: To determine the inhibitory effect of hit compounds on the Tat (ARM)-TAR RNA interaction, a gel shift assay was carried out using the LightShift Chemiluminescent RNA EMSA Kit (Thermo Scientific) according to the manufacturer’s instructions, but with minor modifications suitable for our experiment. Briefly, 2 nM of 5′-biotinylated TAR RNA (nt 31) and 100 nM of ARM peptide were incubated with increasing amounts of hit compounds in the 1× REMSA binding buffer (10 mM HEPES pH 7.5, 10 mM MgCl2, 5 mM KCl, 1 mM DTT, and v/v 5 % glycerol) supplemented with 8 units/reaction of RNase OUT (Invitrogen) (final: 20 µL) at 20 °C for 20 min. Subsequently, the reaction was separated on a 3–12% native gradient PAGE gel. The RNA was then transferred to a nylon membrane to detect the mobility-shifted biotinylated TAR RNA using StAV-horseradish peroxidase conjugate. Chemiluminescence was detected using a GBox Chemi chemi-luminometer (Syngene, Fredrick, MD, USA).

HIV-1NL4-3 (X4-tropic) = experiment: HIV-1 replication assay in PBMCs (p24), HIV-1NL4-3; assay type: cell-based; conditions: PHA-preactivated PBMCs, MOI 0.1, 72 h; 460-G06 at 12.5-100 nM
Description: (§3) Figure 6 Phytohemagglutinin-preactivated peripheral blood mononuclear cells were infected with HIV-1NL4-3 (A) or HIV-1AD8 (B) at an MOI of 0.1 for 2 h and then treated with compounds at indicated concentrations for 72 h. […] The data are expressed as the mean ± SD (n = 3). * p < 0.05 indicates a comparison with the cells treated with DMSO (vehicle). ARVs, anti-retroviral drugs; EFV, efavirenz; DOL, dolutegravir; AZT, azidothymidine.
(§4) The experiments were performed in triplicate.

HIV-1AD8 (R5-tropic) = experiment: HIV-1 replication assay in PBMCs (p24), HIV-1AD8; assay type: cell-based; conditions: PHA-preactivated PBMCs, MOI 0.1, 72 h; 460-G06 at 12.5-100 nM
Description: as §3, §4

TZM-bl cells = experiment: in vitro; conditions: TZM-bl cells
Description: as §1
as §2, with “Subsequently, the cells were infected with HIV-1NL4-3 virus obtained from the transfection of 293T cells at a multiplicity of infection (MOI) of 1.” left out, “Briefly, 4 × 10^5 PBMCs pre-activated with phytohemagglutinin M (PHA-M) were washed with fresh media and then infected with HIV-1NL4-3 or HIV-1AD8 at an MOI of 0.1 by spinoculation for 2 h.” left out, “The data are presented as relative percentages compared to the DMSO control (vehicle). The experiments were performed in triplicate.” left out

[2] = system: Tat (ARM)-TAR RNA interaction; conditions: 10-fold excess competitor, 50 nM analytes
Description: To test whether our assay is applicable for screening specific inhibitors of the Tat-TAR RNA interaction, inhibition assays were performed with known inhibitors of the Tat-TAR RNA interaction. […] A dose–response competition assay was conducted at inhibitor concentrations of 0–100 μM to determine their inhibitory curves in our assay. […] Additionally, a dose-responsive competition assay using RNA fragments was performed to validate the specificity of the assay.
Data are expressed as the mean ± SD (n = 3) compared to a control lacking an RNA competitor.
The indicated concentrations of ARM and Cy5-TAR RNA fragments were incubated in 20 μL of 1× LANCE ultra assay buffer in 384-well microtiter plates with or without inhibitor (competitor) for 30 min at 20 °C in the dark. […] The reaction was performed in a final volume of 25 μL. Small volumes of the reaction solution were added automatically using Assist-Plus (Integra Bioscience, Zisers, Switzerland). After adding all the assay components, the plates were sealed with a clear cover. The ARM-TAR RNA interaction signal was measured in an EnSight multimode plate reader (PerkinElmer) using the LANCE protocol of the time-resolved fluorescence (TRF) mode in the Kaleido software (PerkinElmer), according to the manufacturer’s protocol. Briefly, the excitation light was directed to the donor (Eu) from the Xenon flash lamp at 320 nm selected by an optical filter, and then, an integration time of 100 μs and a delay time of 70 μs were provided to remove short-lived background signals; subsequently, two emission lights were detected at 615 nm for the donor (Eu) and 665 nm for the acceptor (Cy5). The TRF was measured from the top using an excitation filter and emission monochromators in a single measurement mode. The TR-FRET output signal was expressed as the emission ratio of acceptor/donor (665/615 nm × 1000) fluorescence counts. The fold activity of the TR-FRET signal for ARM-TAR RNA interaction was calculated compared to the control reaction lacking the ARM peptide.

[3] = TZM-bl cells, HIV-1NL4-3 MOI 1, 24 h, 0-12.5 μM
[4] = bl-DTR cells, Dox 50 ng/mL, 24 h, F-Luc, 0-12.5 μM

Compound	dose response of Tat activity (F-Luc), in words ([1]; 0-12.5 μM, bl-DTR cells)	IC50 (HIV-1NL4-3; [3]) [µM]	IC50 [1, 4] [µM]	other results
O=C(O)C1CCCc2sc(C=Cc3cc(Cl)c4c(c3)OCCO4)nc21 (centres unmarked) [Hit 458-F08, 2-(2-(8-Chloro-2,3-dihydrobenzo[b][1,4]dioxin-6-yl)vinyl)-4,5,6,7-tetrahydrobenzo[d]thiazole-4-carboxylic acid]	gradual dose-responsive inhibitory effect on Tat activity	1.29 ± 0.384	–	–
Cc1onc(-c2ccccn2)c1C(=O)Nc1ncc(C2CCNCC2)s1 [Hit 459-G07, 5-Methyl-N-(5-(piperidin-4-yl)thiazol-2-yl)-3-(pyridin-2-yl)isoxazole-4-carboxamide]	gradual dose-responsive inhibitory effect on Tat activity	–	3.93 ± 0.338	–
N=c1n(Cc2ccc(F)cc2F)c2ccccc2n1CC(O)Cn1c(-c2ccc(C(F)(F)F)cc2)noc1=O (centres unmarked) [Hit 460-F06, 4-(3-(3-(2,4-Difluorobenzyl)-2-imino-2,3-dihydro-1H-benzo[d]imidazol-1-yl)-2-hydroxypropyl)-3-(4-(trifluoromethyl)phenyl)-1,2,4-oxadiazol-5(4H)-one]	–	–	3.2 ± 0.438	–
CC(C)C(CNc1nc(-c2ccsc2)nc2ccccc12)N1CCN(C)CC1 (centres unmarked) [Hit 461-H04, N-(3-Methyl-2-(4-methylpiperazin-1-yl)butyl)-2-(thiophen-3-yl)quinazolin-4-amine]	gradual dose-responsive inhibitory effect on Tat activity	–	10.1 ± 2.73	–
Cc1ccc(-c2csc3ncnc(NCCCc4n[nH]c(N)c4C#N)c23)cc1 [Hit 463-B11, 5-Amino-3-(3-(5-p-tolylthieno[2,3-d]pyrimidin-4-ylamino)propyl)-1H-pyrazole-4-carbonitrile]	gradual dose-responsive inhibitory effect on Tat activity	5.03 ± 0.31	6.82 ± 1.88	–
Cc1nn2c(nc(NC3CCCN(C)C3)c3ccccc32)c1Cl (centres unmarked) [Hit 463-H08, 3-chloro-2-methyl-N-(1-methylpiperidin-3-yl)pyrazolo[1,5-a]quinazolin-5-amine]	gradual inhibition of F-Luc activity	–	–	IC50 ([1]; Human immunodeficiency virus 1, 24 h): 2.37 ± 0.16 µM; IC50 (HIV-1NL4-3; Human immunodeficiency virus 1, TZM-bl, 24 h): 8.05 ± 0.488 µM; SI (selectivity index) (HIV-1NL4-3; TZM-bl cells): >1.552; Kd (TAR RNA): ~1000 µM; dissociation of ARM from TAR RNA, in words (TAR RNA): relatively less dissociation effect; inhibition of viral replication, in words (HIV-1NL4-3 (X4-tropic)): less inhibitory effect on viral replication; inhibition of viral replication, in words (HIV-1AD8 (R5-tropic)): less inhibitory effect on viral replication
Cc1ccc(Nc2cc3c(n[n+]([O-])n3CCCN3CCCCC3)c3c2C(=O)c2ccccc2C3=O)cc1 [Hit 464-A09, 6,11-Dioxo-3-(3-(piperidin-1-yl)propyl)-5-(p-tolylamino)-6,11-dihydro-3H-anthra[1,2-d][1,2,3]triazole 2-oxide]	gradual dose-responsive inhibitory effect on Tat activity	2.03 ± 0.132	2.27 ± 0.518	inhibitory effect on Tat, in words ([1]; 3.13 μM): strong inhibitory effect; inhibitory effect on HIV-1, in words (HIV-1NL4-3; 3.13 μM): strong inhibitory effect; toxicity, in words (TZM-bl cells; 6.25 μM): sudden severe toxicity; CC50 (TZM-bl cells; concentration that reduces cell viability by 50%): 3.36 ± 0.16 µM
GISYGDKKDDQEERA [mt ARM]	–	–	–	TR-FRET signal in peptide/protein competition assay, in words [2]: neither mt ARM nor BSA affected their interaction signals
